The values below come from patent US12679827B2, “Pyrimidine compounds and their pharmaceutical uses” (National Health Research Institutes, priority 2020, dated 2026).

For assay [1] the following is noted: background statement, WO 2014/190207A1; cited from earlier work.
The next assay concerns NCI-H69. Briefly: Small-cell-lung cancer cell proliferation inhibition assay (PrestoBlue), NCI-H69. Particulars: Homo sapiens, MYCN amplified SCLC cells, 72 hours. In kind it is cell-based. The protocol: (§1) Small cell lung cancer cells NCI-H82 (ATCC HTB-175, cMYC amplified), NCI-H446 (ATCC® HTB-171, cMYC amplified), and NCI-H69 (ATCC® HTB-119, MYCN amplified) were seeded at the density of 5000-10000 cells per well in 96-well plates. After 24 hours, the cancer cells were treated with each compound at various concentrations (0-10 μM) and then incubated for another 72 hours. IC50 values were computed based on duplicated 8-point titration.

In a further assay the test system is NCI-H446. Nature of the assay: Small-cell-lung cancer cell proliferation inhibition assay (PrestoBlue), NCI-H446. In kind it is cell-based. The settings on record: Homo sapiens, cMYC amplified SCLC cells, 72 hours. The method, then:
as §1

The subject of another assay is NCI-H82. Briefly: Small-cell-lung cancer cell proliferation inhibition assay (PrestoBlue), NCI-H82. In kind it is cell-based. The settings on record: Homo sapiens, cMYC amplified SCLC cells, 72 hours. The protocol: as §1
For assay [2], the system named is NCI-H446 xenografted tumor. Nature of the assay: Inhibition of xenografted tumor growth, NCI-H446-xenografted tumorigenicity mouse model. In kind it is in vivo, mice. Particulars: 100 mg/kg orally; for tumor regression: NCI-H446 xenograft. The method, then: The efficacies of two compounds of Formula (I), i.e., compound 71 and compound 122, in inhibiting tumor growth were determined using a NCI-H446-xenografted tumorigenicity mouse model as below.
Male athymic nu/nu nude mice (BioLASCO, Taiwan) at age 6 wk were housed in sterile cages maintained under 12-h light/dark cycles with controlled temperature and humidity. The mice were inoculated s.c. with 1×10^6 NCI-H446 cells (ATCC® HTB-171) resuspended in saline mixed with 50% Metrigel Matrix (Corning, USA). The sizes of the xenografted tumors were measured by a digital caliper (GMC-190; Goldsun Electronics Co.) and calculated using the algorithm: tumor volume (mm^3)=length×(width)^2/2. Body weight and tumor size were measured at least twice a week.

The test system of a further assay is cMYC. Nature of the assay: In vivo cMYC protein level reduction, NCI-H446 xenograft mouse model, Western blot. On the set-up: species or system mice. The settings on record: one oral dosage of 100 mg/kg; tumors harvested 2-24 hours; FIG. 3. The protocol:
(§2) The efficacy of a compound of Formula (I), i.e., compound 71, in reducing the cMYC protein level and in inducing cell apoptosis was assessed using an NCI-H446 xenograft tumorigenicity mouse model as follows.
(§3) Male athymic nu/nu nude mice (BioLASCO. Taiwan) at 6-week age were housed in sterile cages maintained under 12-h light/dark cycles with controlled temperature and humidity. Mice were inoculated s.c. with 1×10^6 NCI-H446 cells resuspended in saline mixed with 50% Metrigel Matrix (Corning, USA). The sizes of the xenografted tumors were measured by a digital caliper (GMC-190; Goldsun Electronics Co.) and calculated using the algorithm: tumor volume (mm^3)=length×(width)^2/2. Body weight and tumor size were measured at least twice a week. When the xenografted NCI-H446 tumor reached a size ≥500 mm^3, the xenografted tumor-bearing nude mice were oral (PO) administered with compound 71 at one dosage of 100 mg/kg. Tumors were harvested at 2 hours, 4 hours, 8 hours, and 24 hours after the administration. Tissue lysates of the tumors were subjected for Western blot analysis. The primary antibodies used were cMYC (Cell Signaling, Cat No. 5605S), PARP-1 (Abcam, ab32378), and β-ACTIN (Sigma-Aldrich, A1978).
In general terms: Immunoblotting shows a protein as a band on a membrane.

A further assay concerns cleaved PARP-1 (cPARP-1). Nature of the assay: In vivo cell apoptosis induction (cleaved PARP-1), NCI-H446 xenograft mouse model, Western blot. On the set-up: species or system mice. Particulars: one oral dosage of 100 mg/kg; 24 hours after administration; FIG. 3. The method, then:
as §2, §3

For assay [3], the target named is T1, human Aurora A (amino acids 123-401) (Homo sapiens, UniProt O14965).
T1 construct: human Aurora A (amino acids 123-401) was expressed in Sf9 insect cells; GST; made in house; host or cells: Sf9 insect cells
T1 sequence (O14965 123-401): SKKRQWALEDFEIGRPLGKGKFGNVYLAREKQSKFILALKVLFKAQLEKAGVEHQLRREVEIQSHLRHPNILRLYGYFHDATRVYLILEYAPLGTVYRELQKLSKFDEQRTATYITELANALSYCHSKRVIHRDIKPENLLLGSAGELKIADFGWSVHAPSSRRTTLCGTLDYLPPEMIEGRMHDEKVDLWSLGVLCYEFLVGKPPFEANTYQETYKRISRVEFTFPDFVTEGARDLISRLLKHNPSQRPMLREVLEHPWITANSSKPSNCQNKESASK
Nature of the assay: Kinase-Glo Luminescent Kinase assay, in vitro inhibition of Aurora A kinase activity. The assay is classed as biochemical. Particulars: recombinant GST-tagged Aurora A, 5.0 μM ATP, 37° C., 120 minutes. Summed up: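 GST-tagged Aurora A (aa 123-401) expressed in Sf9 cells, incubated with compound at 100 nM, 5.0 μM ATP and 15 μM tetra(-LRRASLG) peptide in Tris-HCl pH 7.4 with MgCl2, BSA and DTT, 120 min at 37° C. Remaining ATP read by Kinase-Glo Plus luminescence after 20 min at 25° C.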
On the technique in general: In Kinase-Glo more light means more ATP remaining.

Some results are limits rather than exact numbers.

Consider `O=C(Nc1ccc(Nc2nccc(Nc3cc(C4CCCC4)[nH]n3)n2)cc1)Nc1cccc(C(F)(F)F)c1` [CD532], for which, in assay [1], the in vivo efficacy result is “weak”.

What is called IC50 is the concentration at which inhibition is half-maximal. Consider `CCC(=O)n1nc(C)cc1Nc1cc(N2CCN(CC)CC2)nc(N[C@H]2CCN(C(=O)c3ccc(Cl)cc3F)C2)n1` [Compound 71], for which the IC50 with NCI-H69, with NCI-H446 and with NCI-H82 was under 1000 nM each time. In addition, the “tumor size after treatment” value was “smaller than 50 mm^3” in assay [2] (5-on-2-off, from about 250 mm^3, in 10 days, FIG. 2A) and “smaller than 50 mm^3” in assay [2] (5-on-2-off, from larger than 750 mm^3, in 14 days, FIG. 2C). Further, the tumor regression result in assay [2] is “more than 80%”. For the same compound, in the assay with cMYC, the “xenografted tumors with reduced cMYC protein level” value is given as “more than 50%”. Besides, the “xenografted tumors with increased amounts of cleaved PARP-1 (cell apoptosis)” value with cleaved PARP-1 (cPARP-1) is recorded as “more than 80%”.

With `Cc1cc(Nc2cc(N3C[C@H](C)NC[C@H]3C)nc(NC3CCN(C(=O)c4cccc(Cl)c4F)CC3)n2)n[nH]1` [Compound 107], the IC50 in assay [3] is under 100 nM; in the assay with NCI-H69, under 1000 nM; in the assay with NCI-H446, under 1000 nM; in the assay with NCI-H82, under 1000 nM.

With `CCC(=O)n1nc(C)cc1Nc1cc(N2CCN(CC)CC2)nc(NC2CCN(C(=O)c3cccc(Cl)c3F)CC2)n1` [Compound 122], the IC50 in assay [3] is under 100 nM; in the assay on NCI-H69, under 1000 nM; with NCI-H446, under 1000 nM; in the assay with NCI-H82, under 1000 nM. Further, the tumor regression result in assay [2] is recorded as “more than 80%”. Moreover, in assay [2] (from about 250 mm^3, FIG. 2B), the “tumor size after treatment” value was “smaller than 50 mm^3”.

For `CCC(=O)n1nc(Nc2cc(N3CCN(CC)CC3)nc(NC3CCN(C(=O)c4cccc(Cl)c4F)CC3)n2)cc1C` [Compound 123], the IC50 in assay [3] is under 100 nM; in the assay on NCI-H69, under 1000 nM; in the assay on NCI-H446, under 1000 nM; in the assay with NCI-H82, under 1000 nM.

As to `COc1cc(Nc2ncc3c(n2)-c2ccc(Cl)cc2C(c2c(F)cccc2OC)=NC3)ccc1C(=O)O` [MCLN8237, reference compound], the “tumor size 6 weeks after the treatment stopped” value in assay [2] (FIG. 2A) is reported as over 700 mm^3.
